pIC50: −log10 of the molar value.
Columns and labels:
[1] = system: HIV-1 (H9IIIB virus) replication in MT4-GFP cells; assay: Viking Assay: antiviral potency in a multiple round HIV-1 infection assay; format: cell-based; details: inhibition of reproductive ratio R0 between ~48 h and ~72 h post-infection, read-out: Viking, IC50 (10% NHS)
Method: Assessing Antiviral Potency in a Multiple Round HIV-1 Infection Assay.
Cells were then washed and re-suspended in either RPMI 1640 containing 10% or 50% normal human serum at 1.6×10^5 cells/mL (10% or 50% NHS conditions) or in 100% normal human serum at 2×10^5 cells/mL (100% NHS conditions).
The increase in the number of green cells over ˜24 h period gives the reproductive ratio, R0, which is typically 5-15 and has been shown experimentally to be in logarithmic phase (data not shown). Inhibition of R0 is calculated for each well, and IC50s determined by non-linear 4-parameter curve fitting.

MT4-GFP cells = assay: CTG Assay: cytotoxicity in CellTiter-Glo Luminescent Cell Viability Assay; format: cell-based; details: 10% normal human serum, 48 h incubation, top concentration 8.4 μM
Method: Assessing Cytotoxicity in CellTiter-Glo Luminescent Cell Viability Assay (CTG).
Cells were then washed and resuspended in RPMI 1640 containing 10% normal human serum at a density of 0.8×10^5 cells/mL. […] Controls included DMSO. […] CTG reagent (Promega, G7573) was added to the cell plates after 48 h incubation according to the manufacturer's description. Luminescence signals were recorded on EnVision plate reader (PerkinElmer). LD50s were determined by non-linear 4-parameter curve fitting. The resulting data is shown in Table 3 with the marketed HIV nucleoside reverse transcriptase inhibitor AZT (azidothymidine, zidovudine) included as a control.

[2] = system: HIV-1 (H9IIIB virus) replication in MT4-GFP cells; assay: Antiviral Persistence assay; details: for pIC50: washed, then infected, 10% NHS; for Fold shift IC50 72 h/24 h: ratio of IC50 72 h to IC50 24 h
Method: HIV-1 replication was monitored using MT4-gag-GFP clone D3 (hereafter designate MT4-GFP), which are MT-4 cells modified to harbor a GFP reporter gene, the expression of which is dependent on the HIV-1 expressed proteins tat and rev. Productive infection of an MT4-GFP cell with HIV-1 results in GFP expression approximately 24 h post-infection. MT4-GFP cells were maintained at 37° C./5% CO2/90% relative humidity in RPMI 1640 supplemented with 10% fetal bovine serum, 100 U/mL penicillin/streptomycin, and 400 μg/mL G418 to maintain the reporter gene. For 72 hour time point persistence assay (72 h plate) and 24 hour time point control assay (24 h plate), MT4-GFP cells were washed and re-suspended in RPMI 1640 containing 10% normal human serum at either 1.6×10^5 or 2.4×10^5 cells/mL (10% NHS). Compound plates were prepared by dispensing compounds dissolved in DMSO into wells of 384 well cell culture plates ([…]) using an ECHO acoustic dispenser. Each compound was tested in a 10 point serial 3-fold dilution (typical final concentrations: 4.2 μM-0.21 nM). Controls included no inhibitor (DMSO only) and a combination of three antiviral agents (efavirenz, indinavir, and an integrase strand transfer inhibitor at final concentrations of 4 μM each). Cells were added (50 μL/well) to compound plates and were incubated at 37° C./5% CO2/90% relative humidity for 24 hours. The cells were washed with 5×40 uL of RPMI 1640 supplemented with 10% NHS and 100 U/mL penicillin/streptomycin. 72 h plate was return back to 37° C. incubator for additional 48 hour incubation. 40 uL of the cells from each well of the 24 h plate or the 72 h plate (after 48 hour incubation post wash) were transferred to a poly-D-lysine coated plate. The cells were then infected with H9IIIB virus at an approximate multiplicity of infection of 0.1 in the same incubation conditions.
Infected cells were quantified at ˜24 h post-infection, by counting the number of green cells in each well using an Acumen eX3 scanner. IC50s for the compounds in Table 4 were determined by non-linear 4-parameter curve fitting.
The antiviral persistence assay is meant to assess for the persistence of antiviral activity upon removal of the nucleoside. […] The publication AIDS Research and Therapy, 2009, 6:5, highlights the value of antiviral persistence.

[3] = target: T1, adenosine deaminase (ADA) type 1 (Homo sapiens, UniProt P00813); assay: Adenosine Deaminase (ADA) Half-Life; format: in vitro ADME; details: human, human adenosine deaminase (ADA) type 1 in Tris-HCl buffer; time for 50% conversion to inosine product; Tris-HCl buffer pH 7.5, 40° C., LCMS
T1 sequence (P00813 1-363): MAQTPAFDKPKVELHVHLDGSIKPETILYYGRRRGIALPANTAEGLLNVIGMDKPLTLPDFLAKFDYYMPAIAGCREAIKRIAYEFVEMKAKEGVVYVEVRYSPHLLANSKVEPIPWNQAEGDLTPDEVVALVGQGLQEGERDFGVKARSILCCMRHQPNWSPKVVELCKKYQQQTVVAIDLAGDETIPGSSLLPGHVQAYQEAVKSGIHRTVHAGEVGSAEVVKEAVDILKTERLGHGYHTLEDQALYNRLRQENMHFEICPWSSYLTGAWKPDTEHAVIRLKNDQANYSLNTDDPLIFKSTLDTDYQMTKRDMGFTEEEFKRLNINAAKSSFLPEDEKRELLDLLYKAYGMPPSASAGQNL
Method: (§1) The data in Table 5 was generated by reacting a substrate compound with human ADA type 1 in the presence of Tris-HCl buffer (pH 7.5) at 40° C. and monitoring by LCMS for consumption of starting material. The time necessary for 50% conversion to the corresponding inosine product is noted as the T1/2 in Table 5. It is known that deamination by adenosine deaminase decreases the therapeutic potential of adenosine-like nucleoside inhibitors especially in vivo (see references below). […] It is possible that compounds that are more resistant to ADA will have better pharmacokinetic properties.
(§2) Tris-HCl buffer (pH 7.5, 5 mL) was injected into a 25-mL round-bottom flask. The mixture was heated to reflux for 30 minutes. Then the mixture was cooled to 30° C. and (2R,3S,5R)-5-(4-amino-5-fluoro-7H-pyrrolo[2,3-d]pyrimidin-7-yl)-2-ethynyl-2-(hydroxymethyl)tetrahydrofuran-3-ol (Example compound 2, 7 mg, 0.024 mmol) was added, followed by the addition of adenosine deaminase (3 mg, ˜33 units). The resulting mixture was stirred at 40° C. and stirred for 4 days. The reaction mixture was concentrated under vacuum and the residue was purified by preparative-HPLC with the following conditions: Column: X-Bridge C18, 19*150 mm, 5 um; mobile phase, water with 10 mmol ammonium bicarbonate and acetonitrile (6% acetonitrile up to 30% in 5 min, hold 95% for 2 min, down to 40% in 2 min); Detector, uv 254&220 nm. The product-containing fractions were collected and lyophilized to give the title compound 2A as a solid. ^1H-NMR: (400 MHz, d6-DMSO, ppm): δ 11.58 (brs, 1H), 7.86 (s, 1H), 7.22 (d, J=1.6 Hz, 1H), 6.44 (t, J=5.8 Hz, 1H), 5.47 (d, J=4.8 Hz, 1H), 5.26-5.22 (m, 1H), 4.39-4.35 (m, 1H), 3.55-3.45 (m, 2H), 3.42 (s, 1H), 2.41-2.24 (m, 2H). ^19F-NMR: (376 MHz, d6-DMSO, ppm): δ −165.50 (s, 1F). LC-MS: (ES, m/z): 294.15 [M+H]^+.
(§3) Using the described procedures, conversion of compounds 4, 8 and 9 to 4A, 8A and 9A, respectively, was not detected (NA=substrate insensitive to adenosine deaminase).

human ADA type 1 = target: T2, human ADA type 1 (Homo sapiens, UniProt P00813); assay: Adenosine Deaminase (ADA) Half-Life; format: in vitro ADME; details: Tris-HCl buffer pH 7.5, 40° C., procedures as for compound 2 to 2A
T2 sequence (P00813 1-363): T1 sequence (P00813 1-363)
Method: as §1, §2, §3

[4] = Human immunodeficiency virus 1, 10% normal human serum
[5] = Human immunodeficiency virus 1, 24 h, read-out: IC50 24 h (nM)
[6] = Human immunodeficiency virus 1, read-out: IC50 72 h (nM)

(2R,3S,5R)-5-(4-aminopyrrolo[2,1-f][1,2,4]triazin-7-yl)-3-hydroxy-2-(hydroxymethyl)tetrahydrofuran-2-carbonitrile [Example 12]
pIC50 ([1]; 10% normal human serum): 6.13 | LD50 (MT4-GFP cells): >8.4 µM | pIC50 ([2]; read-out: IC50 24 h, 24 h plate: cells incubated with compound 24 hours): 6.06 | pIC50 ([2]; read-out: IC50 72 h, 72 h plate: compound 24 hours, additional 48 hour incubation): 4.60

C#C[C@]1(CO)O[C@@H](c2ccc3c(N)ncnn23)C[C@@H]1O [Example 11, (2R,3S,5R)-5-(4-aminopyrrolo[2,1-f][1,2,4]triazin-7-yl)-2-ethynyl-2-(hydroxymethyl)tetrahydrofuran-3-ol]
pIC50 [1, 4]: 7.76 | IC50 [2, 5]: 12.4 nM | IC50 [2, 6]: 1950 nM | Fold shift IC50 72 h/24 h [2]: 157 | half-life at 4.8 mM [3]: 3 h

C#C[C@]1(CO)O[C@@H](n2ccc3c(N)ncnc32)C[C@@H]1O [Example 1, (2R,3S,5R)-5-(4-amino-7H-pyrrolo[2,3-d]pyrimidin-7-yl)-2-ethynyl-2-(hydroxymethyl)tetrahydrofuran-3-ol]
pIC50 [1, 4]: 8.89 | IC50 [2, 5]: 0.8 nM | IC50 [2, 6]: 36 nM | Fold shift IC50 72 h/24 h [2]: 45 | half-life at 4.8 mM [3]: 288 h

C#C[C@]1(CO)O[C@@H](c2cnc3c(N)ncnn23)C[C@@H]1O [Example 22, (2R,3S,5R)-5-(4-aminoimidazo[2,1-f][1,2,4]triazin-7-yl)-2-ethynyl-2-(hydroxymethyl)tetrahydrofuran-3-ol]
pIC50 [1, 4]: 7.42 | IC50 [2, 5]: 38 nM | IC50 [2, 6]: 350 nM | Fold shift IC50 72 h/24 h [2]: 9.2 | half-life at 4.8 mM [3]: 0.167 h

C#C[C@]1(CO)O[C@@H](n2ccc3c(N)nc(N)nc32)C[C@@H]1O [Example 8, (2R,3S,5R)-5-(2,4-diamino-7H-pyrrolo[2,3-d]pyrimidin-7-yl)-2-ethynyl-2-(hydroxymethyl)tetrahydrofuran-3-ol]
pIC50 [1, 4]: 6.71 | IC50 [2, 5]: 840 nM | IC50 [2, 6]: 29000 nM | Fold shift IC50 72 h/24 h [2]: 34.5 | conversion to the corresponding inosine product by adenosine deaminase (human ADA type 1): not detected

C#C[C@]1(CO)O[C@@H](c2cnn3c(N)ncnc23)C[C@@H]1O [Example 23, (2R,3S,5R)-5-(4-aminopyrazolo[1,5-a][1,3,5]triazin-8-yl)-2-ethynyl-2-(hydroxymethyl)tetrahydrofuran-3-ol]
pIC50 [1, 4]: 7.19 | IC50 [2, 5]: 64 nM | IC50 [2, 6]: 700 nM | Fold shift IC50 72 h/24 h [2]: 10.9 | half-life at 4.8 mM [3]: 0.167 h

C#C[C@]1(CO)O[C@@H](n2ccc3c(N)nc(Cl)nc32)C[C@@H]1O [Example 4, (2R,3S,5R)-5-(4-amino-2-chloro-7H-pyrrolo[2,3-d]pyrimidin-7-yl)-2-ethynyl-2-(hydroxymethyl)tetrahydrofuran-3-ol]
pIC50 [1, 4]: 8.40 | IC50 [2, 5]: 9.6 nM | IC50 [2, 6]: 360 nM | Fold shift IC50 72 h/24 h [2]: 37.5 | conversion to the corresponding inosine product by adenosine deaminase (human ADA type 1): not detected

C#C[C@]1(CO)O[C@@H](n2cnc3c(N)ncnc32)C[C@@H]1O [EDA, (2R,3S,5R)-5-(6-amino-9H-purin-9-yl)-2-ethynyl-2-(hydroxymethyl)tetrahydrofuran-3-ol, reference compound]
half-life at 4.8 mM [3]: < 1 h

C#C[C@]1(CO)O[C@@H](n2cc(F)c3c(N)ncnc32)C[C@@H]1O [Example 2, (2R,3S,5R)-5-(4-amino-5-fluoro-7H-pyrrolo[2,3-d]pyrimidin-7-yl)-2-ethynyl-2-(hydroxymethyl)tetrahydrofuran-3-ol]
pIC50 [1, 4]: 8.80 | IC50 [2, 5]: 6.6 nM | IC50 [2, 6]: 193 nM | Fold shift IC50 72 h/24 h [2]: 29 | half-life at 4.8 mM [3]: 16 h

Nc1ncnc2c1ncn2[C@H]1C[C@H](O)[C@@H](CO)O1 [Deoxy- adenosine, deoxyadenosine, reference compound]
half-life at 4.8 mM [3]: < 0.167 h

C#C[C@]1(CO)O[C@@H](n2ccc3c(N)nc(F)nc32)C[C@@H]1O [Example 9, (2R,3S,5R)-5-(4-amino-2-fluoro-7H-pyrrolo[2,3-d]pyrimidin-7-yl)-2-ethynyl-2-(hydroxymethyl)tetrahydrofuran-3-ol]
pIC50 [1, 4]: 7.99 | IC50 [2, 5]: 37 nM | IC50 [2, 6]: 270 nM | Fold shift IC50 72 h/24 h [2]: 7.3 | conversion to the corresponding inosine product by adenosine deaminase (human ADA type 1): not detected

Reference: patent US20180002366A1, “4'-SUBSTITUTED NUCLEOSIDE REVERSE TRANSCRIPTASE INHIBITORS” (MERCK SHARP & DOHME CORP., priority 2014, published 2018)
